From patent US11344510B2, “Arylcyclohexylamine derivatives and their use in the treatment of psychiatric disorders” (Gilgamesh Pharmaceuticals, Inc., priority 2019, dated 2022)
Read-outs that look alike come from different tables or passages of the source.

Columns and labels:
[1] = biological target: T1, norepinephrine transporter (NET) (Homo sapiens, UniProt P23975); test: Fluorescent substrate uptake inhibition, NET; format: cell-based; conditions: for inhibition at 10 µM: HEK293 cells expressing NET
T1 construct: expressed in transfected cells; host or cells: HEK293

[2] = Oral bioavailability in rats, Method B; format: in vivo; conditions: plasma, Sprague Dawley rats, Method B; for AUC(0-t) / half-life / Cmax: male, rat; for F: 10 mg/kg
Protocol: Animals. Male Sprague Dawley rats were used in these studies. Animals were randomly assigned to treatment groups and were fasted overnight before oral dosing.
Drugs. Test compounds were dissolved in a vehicle consisting of normal saline (compounds 14R, 88R, 29rac, and 27rac) or a mixture of 5% v/v N-methyl-2-pyrrolidone, 5% v/v Solutol HS-15, and 90% v/v normal saline (compounds 84R and 84S). They were then administered intravenously (iv) or orally (po) at a dose of 10 mg/kg (calculated based on freebase) and at a volume of 5 mL/kg body weight. Compounds were tested as the racemates (indicated by “rac” nomenclature) or pure enantiomers (indicated by “R” or “S” nomenclature).
Sample Collection and Bioanalysis. Blood samples (approximately 120 μL) were collected under light isoflurane anesthesia (Surgivet®) from the retro orbital plexus at 0.08, 0.25, 0.5, 1, 2, 4, 8, and 24 h (total 8 time points/rat, 4 rats per administration route per compound). Immediately after blood collection, plasma was harvested by centrifugation at 4000 rpm for 10 min at 4° C. and samples were stored at −70±10° C. until bioanalysis. For bioanalysis, 25 μL aliquots of plasma study samples or spiked plasma calibration standards were added to individual pre-labeled micro-centrifuge tubes followed by 100 μL of an internal standard solution (glipizide, 500 ng/mL in acetonitrile) except for blanks, where 100 μL of acetonitrile was added. Samples were vortexed for 5 minutes and then centrifuged for 10 minutes at 4000 rpm at 4° C. Following centrifugation, 100 μL of each clear supernatant was transferred to a 96 well plate and analyzed with a fit-for-purpose LC-MS/MS method, with authentic samples of each analyte used for calibration and identification. In the case of compounds 14R and 88R, their metabolite 11R was also quantified in plasma samples.
(§1) Data Analysis. Pharmacokinetic parameters were estimated using the non-compartmental analysis tool of Phoenix® WinNonlin software (Ver 8.0).

[3] = Oral bioavailability in mice, Method B; format: in vivo; conditions: CD-1 mice; for AUC0-inf (iv) / AUC0-last (po) / AUC(0-inf): Method B: values represent AUC0-last (footnote); for F: 10 mg/kg; for half-life / Cmax / AUC(0-inf): male, mouse
Protocol: Animals. Male CD-1 mice were used in these studies Animals were randomly assigned to treatment groups and were fasted for 4 h before oral dosing.
Drugs. Test compounds were dissolved in a vehicle consisting of normal saline (compounds 19S and 88R) or a mixture of 5% v/v N-methyl-2-pyrrolidone, 5% v/v Solutol HS-15, and 90% v/v normal saline (compounds 11S, 11R, 114S, and 114R). They were then administered intravenously (iv) or orally (po) at a dose of 10 mg/kg (calculated based on freebase) and at a volume of 5 mL/kg body weight. Compounds were tested as the racemates (indicated by “rac” nomenclature) or pure enantiomers (indicated by “R” or “S” nomenclature).
Sample Collection and Bioanalysis. Blood samples (approximately 60 μL) were collected under light isoflurane anesthesia (Surgivet®) from the retro orbital plexus at 0.08, 0.25, 0.5, 1, 2, 4, 8, and 24 h (4 animals per time point) Immediately after blood collection, plasma was harvested by centrifugation at 4000 rpm for 10 min at 4° C. and samples were stored at −70±10° C. until bioanalysis. Following blood collection, animals were immediately sacrificed, the abdominal vena-cava was cut open, and the whole body was perfused from the heart using 10 mL of normal saline, and brain samples were collected from all animals After isolation, brain samples were rinsed three times in ice-cold normal saline (for 5-10 seconds/rinse using ˜5-10 mL normal saline in disposable petri dish for each rinse) and dried on blotting paper. Brain samples were homogenized using ice-cold phosphate-buffered saline (pH 7.4). Total homogenate volume was three times the tissue weight. All homogenates were stored at −70±10° C. until bioanalysis. For bioanalysis, 25 μL aliquots of plasma/brain study samples or spiked plasma/brain calibration standards were added to individual pre-labeled micro-centrifuge tubes followed by 100 μL of an internal standard solution (glipizide, 500 ng/mL in acetonitrile) except for blanks, where 100 μL of acetonitrile was added. Samples were vortexed for 5 minutes and then centrifuged for 10 minutes at 4000 rpm at 4° C. Following centrifugation, 100 μL of each clear supernatant was transferred to a 96 well plate and analyzed with a fit-for-purpose LC-MS/MS method, with authentic samples of each analyte used for calibration and identification.
as §1

[4] = 10 mg/kg iv, read-out: AUC0-last (iv) (converted)
[5] = 10 mg/kg iv, read-out: t1/2 (iv)
[6] = 10 mg/kg po, read-out: AUC0-last (po) (converted)
[7] = 10 mg/kg po, read-out: t1/2 (po)
[8] = calculated based on brain exposure (AUC0-last), Method B
[9] = brain, 10 mg/kg iv, Method B, read-out: t1/2 (iv)
[10] = brain, 10 mg/kg po, Method B, read-out: t1/2 (po)
[11] = plasma, 10 mg/kg iv, read-out: AUC0-inf (iv) (converted)
[12] = plasma, 10 mg/kg iv, Method B, read-out: t1/2 (iv)
[13] = plasma, 10 mg/kg po, read-out: AUC0-inf (po) (converted)
[14] = plasma, 10 mg/kg po, Method B, read-out: t1/2 (po)
[15] = plasma, Method B: based on AUC0-last

T1 sequence (P23975 whole entry, species assumed): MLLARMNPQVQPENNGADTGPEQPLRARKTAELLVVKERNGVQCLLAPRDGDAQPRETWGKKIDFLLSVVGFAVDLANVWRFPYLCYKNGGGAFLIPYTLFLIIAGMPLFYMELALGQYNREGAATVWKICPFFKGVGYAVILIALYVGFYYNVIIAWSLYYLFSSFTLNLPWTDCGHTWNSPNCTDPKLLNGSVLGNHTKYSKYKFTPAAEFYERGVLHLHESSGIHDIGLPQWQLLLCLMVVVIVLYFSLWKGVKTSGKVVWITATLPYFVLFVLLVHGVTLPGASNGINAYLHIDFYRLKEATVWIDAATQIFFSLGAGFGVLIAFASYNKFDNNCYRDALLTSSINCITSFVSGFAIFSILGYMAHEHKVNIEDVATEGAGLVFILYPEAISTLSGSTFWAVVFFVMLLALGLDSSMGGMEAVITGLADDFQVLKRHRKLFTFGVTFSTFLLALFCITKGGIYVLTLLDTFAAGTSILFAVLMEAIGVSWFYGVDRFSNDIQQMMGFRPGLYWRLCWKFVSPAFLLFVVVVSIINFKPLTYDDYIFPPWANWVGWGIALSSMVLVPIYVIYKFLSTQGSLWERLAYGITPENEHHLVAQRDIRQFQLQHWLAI

Row | Structure (SMILES) | IC50 [1] | inhibition at 10 µM [1] | AUC(0-t) [2, 4] | half-life [2, 5] | Cmax ([2]; 10 mg/kg po) | AUC(0-t) [2, 6] | half-life [2, 7] | F [2] | AUC0-inf (iv) ([3]; brain, 10 mg/kg iv) | AUC0-last (po) ([3]; brain, 10 mg/kg po) | F [3, 8] | half-life [3, 9] | Cmax ([3]; brain, 10 mg/kg po, Method B) | half-life [3, 10] | AUC(0-inf) [3, 11] | half-life [3, 12] | Cmax ([3]; plasma, 10 mg/kg po, Method B) | AUC(0-inf) [3, 13] | half-life [3, 14] | F [3, 15]
1 | O=C1CCCCC1(c1ccccc1)N1CCCC1 (racemic) [Compound 27rac, 2-phenyl-2-(pyrrolidin-1-yl)cyclohexan-1-one] | 4.9 µM | 40.8% | 1710 ng·h/mL | 97.2 min | 197 ng/mL | 563 ng·h/mL | 145 min | 33% |  |  |  |  |  |  |  |  |  |  |  | 
2 | COCCNC1(c2ccccc2)CCCCC1=O (racemic) [Compound 29rac, 2-((2-methoxyethyl)amino)-2-phenylcyclohexan-1-one] |  |  | 1710 ng·h/mL | 66 min | 321 ng/mL | 353 ng·h/mL | 69 min | 21% |  |  |  |  |  |  |  |  |  |  |  | 
3 | N[C@@]1(c2ccccc2)CCCCC1=O [Compound 11R, (R)-2-amino-2-phenyl-cyclohexan-1-one] |  | 10.4% |  |  |  |  |  |  | 621,341 ng*min/g | 220,091 ng*min/g | 35% | 70.2 min | 1470 ng/g | 114 min | 5570 ng·h/mL | 66.6 min | 1430 ng/mL | 4210 ng·h/mL | 145 min | 76%
4 | N[C@]1(c2ccccc2)CCCCC1=O [Compound 11S, (S)-2-amino-2-phenyl-cyclohexan-1-one] |  | 14.8% |  |  |  |  |  |  | 434,023 ng*min/g | 292,247 ng*min/g | 67% | 42 min | 2190 ng/g |  | 3420 ng·h/mL | 63.6 min | 2130 ng/mL | 4200 ng·h/mL |  | 123%
5 | CN[C@@]1(c2ccccc2)CCCCC1=O [Compound 14R, (R)-2-(methylamino)-2-phenylcyclohexan-1-one] |  | 1.7% | 1960 ng·h/mL | 37.8 min | 235 ng/mL | 237 ng·h/mL | 30.6 min | 12% |  |  |  |  |  |  |  |  |  |  |  | 
6 | CN[C@]1(c2ccccc2)CCCCC1=O [Compound 14S, (S)-2-(methylamino)-2-phenylcyclohexan-1-one] |  | 1.8% |  |  |  |  |  |  |  |  |  |  |  |  |  |  |  |  |  | 
7 | CN[C@]1(c2cccc(F)c2)CCCCC1=O [Compound 19S, (5)-2-(3-fluorophenyl)-2-(methylamino)cyclohexan-1-one] |  | 10.3% |  |  |  |  |  |  | 171,028 ng*min/g | 23,552 ng*min/g | 14% | 116 min | 436 ng/g | 141 min | 1130 ng·h/mL | 114 min | 442 ng/mL | 671 ng·h/mL | 137 min | 59%
8 | O=C1CCCC[C@]1(c1ccccc1)N1CCC1 [Compound 84R, (R)-2-(azetidin-1-yl)-2-phenyl-cyclohexan-1-one] | 15.4 µM | 29.1% | 369 ng·h/mL | 37.2 min | 15.5 ng/mL | 11.9 ng·h/mL | 27 min | 3% |  |  |  |  |  |  |  |  |  |  |  | 
9 | O=C1CCCC[C@@]1(c1ccccc1)N1CCC1 [Compound 84S, (S)-2-(azetidin-1-yl)-2-phenyl-cyclohexan-1-one] | 29.7 µM | 34.9% | 482 ng·h/mL | 46.2 min | 69.8 ng/mL | 77 ng·h/mL | 37.2 min | 16% |  |  |  |  |  |  |  |  |  |  |  | 
10 | Cc1ccccc1[C@]1(N)CCCCC1=O [Compound 114R, (R)-2-amino-2-(o-tolyl)cyclohexan-1-one] |  | 7.7% |  |  |  |  |  |  | 155,752 ng*min/g | 38,185 ng*min/g | 25% | 19.2 min | 683 ng/g | 67.2 min | 325 ng·h/mL | 45 min | 319 ng/mL | 430 ng·h/mL | 76.8 min | 132%
11 | Cc1ccccc1[C@@]1(N)CCCCC1=O [Compound 114S, (S)-2-amino-2-(o-tolyl)cyclohexan-1-one] |  | 10.4% |  |  |  |  |  |  | 244,634 ng*min/g | 86,338 ng*min/g | 35% |  | 825 ng/g |  | 757 ng·h/mL | 80.4 min | 746 ng/mL | 1470 ng·h/mL | 79.2 min | 194%
